The subject of this test is rgRSV224 virus. Description: Antiviral activity: inhibition of rgRSV224 (GFP-expressing RSV) replication in HeLa cells. In kind it is cell-based, respiratory syncytial virus. The settings on record: human respiratory syncytial virus, HeLa, 72 h, read-out: pEC50, rgRSV224 (MOI=0.02) in HeLa cells, GFP expression three days post-virus exposure (converted). The protocol: Black 96-well clear-bottom microtiter plates (Corning, Amsterdam, The Netherlands) were filled in duplicate using a customized robot system with serial 4-fold dilutions of compound in a final volume of 50 μl culture medium [RPMI medium without phenol red, 10% FBS, 0.04% gentamycin (50 mg/ml) and 0.5% DMSO]. Then, 100 μl of a HeLa cell suspension (5×10^4 cells/ml) in culture medium was added to each well followed by the addition of 50 μl rgRSV224 (MOI=0.02) virus in culture medium using a multidrop dispenser (Thermo Scientific, Erembodegem, Belgium). rgRSV224 virus is an engineered virus that includes an additional GFP gene (Hallak et al, 2000) and was in-licensed from the NIH (Bethesda, Md., USA). Medium, virus- and mock-infected controls were included in each test. Cells were incubated at 37° C. in a 5% CO2 atmosphere. Three days post-virus exposure, viral replication was quantified by measuring GFP expression in the cells by a MSM laser microscope (Tibotec, Beerse, Belgium). The EC50 was defined as the 50% inhibitory concentration for GFP expression. In parallel, compounds were incubated for three days in a set of white 96-well microtitier plates (Corning) and the cytotoxicity of compounds in HeLa cells was determined by measuring the ATP content of the cells using the ATPlite kit (PerkinElmer, Zaventem, Belgium) according to the manufacturer's instructions. The CC50 was defined as the 50% concentration for cytotoxicity. SI is calculated as CC50/EC50.

Consider 27 molecules from patent US9617289B2, “RSV antiviral compounds” (JANSSEN R&D IRELAND, priority 2012, dated 2017).

On to `CC(=O)N1CCC2(CC1)C(=O)N(Cc1nc3cc(Cl)ccc3n1CCCS(C)(=O)=O)c1ccc(Cl)cc12` [Compound 24, 1-acetyl-5-chloro-1-((5-chloro-1-(3-(methylsulfonyl)-propyl)-1H-benzo[d]imidazol-2-yl)methyl)spiro[indoline-3,4′-piperidin]-2-one], for which the EC50 was 7.94 nM.

On to `CC(C)(O)CN1CCC2(CC1)C(=O)N(Cc1nc3cc(Cl)ccc3n1CCCS(C)(=O)=O)c1ccc(Cl)cc12` [Compound 25, 5-chloro-1-((5-chloro-1-(3-(methylsulfonyl)propyl)-1H-benzo[d]imidazol-2-yl)methyl)-1-(2-hydroxy-2-methylpropyl)spiro[indoline-3,4′-piperidin]-2-one], for which the EC50 was 31.6 nM.

For `CS(=O)(=O)CCCn1c(CN2C(=O)C3(CCNCC3)c3c(Cl)cccc32)nc2cc(Cl)ccc21` [Compound 26, 4-chloro-1-({5-chloro-1-[3-(methylsulfonyl)propyl]-1H-benzimidazol-2-yl}methyl)spiro[indole-3,4′-piperidin]-2(1H)-one], the EC50 is 316 nM.

On to `CS(=O)(=O)CCCn1c(CN2C(=O)C3(CN(S(=O)(=O)c4ccc(F)cc4)C3)c3ccccc32)nc2cc(Cl)ccc21` [Compound 33, 1′-({5-chloro-1-[3-(methylsulfonyl)propyl]-1H-benzimidazol-2-yl}methyl)-1-[(4-fluorophenyl)-sulfonyl]spiro[azetidine-3,3′-indol]-2′(1′H)-one], for which the EC50 was 0.158 nM.

With `CS(=O)(=O)CCCn1c(CN2C(=O)C3(CCCC3)c3ccncc32)nc2cc(Cl)ccc21` [Compound 37, 1′-((5-chloro-1-(3-(methylsulfonyl)propyl)-1H-benzo[d]-imidazol-2-yl)methyl)spiro[cyclopentane-1,3′-pyrrolo[2,3-c]pyridin]-2′(1′H)-one], the EC50 was 0.1 nM.

For the molecule `CS(=O)(=O)CCCn1c(CN2C(=O)C3(CCOCC3)c3ccncc32)nc2cc(Cl)ccc21` [Compound 38, 1′-((5-chloro-1-(3-(methylsulfonyl)propyl)-1H-benzo[d]-imidazol-2-yl)methyl)-2,3,5,6-tetrahydrospiro[pyran-4,3′-pyrrolo[2,3-c]pyridin]-2′(1′H)-one], the EC50 is 0.158 nM.

For the molecule `CC(C)(C)OC(=O)N1CCC2(CC1)C(=O)N(Cc1nc3cc(Cl)ccc3n1CCCS(C)(=O)=O)c1ccccc12` [Compound 39, tert-butyl 1-((5-chloro-1-(3-(methylsulfonyl)propyl)-1H-benzo[d]imidazol-2-yl)methyl)-2-oxospiro[indoline-3,4′-piperidine]-1′-carboxylate], the EC50 was 0.631 nM.

For the molecule `CS(=O)(=O)CCCn1c(CN2C(=O)C3(CCOCC3)c3ccccc32)nc2cc(Cl)ccc21` [Compound 40, 1-((5-chloro-1-(3-(methylsulfonyl)propyl)-1H-benzo[d]-imidazol-2-yl)methyl)-2′,3′,5′,6′-tetrahydrospiro[indoline-3,4′-pyran]-2-one], the EC50 is 2.51 nM.

For `CS(=O)(=O)CCCn1c(CN2C(=O)C3(CCOCC3)c3cnccc32)nc2cc(Cl)ccc21` [Compound 41, 1-((5-chloro-1-(3-(methylsulfonyl)propyl)-1H-benzo[d]-imidazol-2-yl)methyl)-2,3,5,6-tetrahydrospiro[pyran-4,3′-pyrrolo[3,2-c]pyridin]-2′(1′H)-one], the EC50 is 45.7 nM.

In the case of `CC(=O)N1CCC2(CC1)C(=O)N(Cc1nc3cc(Cl)ccc3n1CCCS(C)(=O)=O)c1cnccc12` [Compound 42, 1-acetyl-1′-((5-chloro-1-(3-(methylsulfonyl)propyl)-1H-benzo[d]imidazol-2-yl)methyl)spiro[piperidine-4,3′-pyrrolo-[2,3-c]pyridin]-2′(1′H)-one], the EC50 was below 0.158 nM.

As to `O=C(Oc1ccc(F)cc1)N1CC2(C1)C(=O)N(Cc1nc3cc(Cl)ccc3n1CCCC(F)(F)F)c1ccccc12` [Compound 43, 4-fluorophenyl 1′-((5-chloro-1-(4,4,4-trifluorobutyl)-1H-benzo[d]imidazol-2-yl)methyl)-2′-oxospiro[azetidine-3,3′-indoline]-1-carboxytale], the EC50 is 0.251 nM.

Consider `CC(C)(C)OC(=O)N1CC2(C1)C(=O)N(Cc1nc3cc(Cl)ccc3n1CCCC(F)(F)F)c1ccccc12` [Compound 44, tert-butyl 1′-((5-chloro-1-(4,4,4-trifluorobutyl)-1H-benzo[d]imidazol-2-yl)methyl)-2′-oxospiro[azetidine-3,3′-indoline]-1-carboxylate], for which the EC50 was 0.251 nM.

Consider `CC(C)COC(=O)N1CC2(C1)C(=O)N(Cc1nc3cc(Cl)ccc3n1CCCC(F)(F)F)c1ccccc12` [Compound 45, isobutyl 1′-((5-chloro-1-(4,4,4-trifluorobutyl)-1H-benzo[d]-imidazol-2-yl)methyl)-2′-oxospiro[azetidine-3,3′-indoline]-1-carboxylate], for which the EC50 was 0.398 nM.

In the case of `O=C1N(Cc2nc3cc(Cl)ccc3n2CCCC(F)(F)F)c2ccccc2C12CNC2` [Compound 46, 1′-((5-chloro-1-(4,4,4-trifluorobutyl)-1H-benzo[d]imidazol-2-yl)methyl)spiro[azetidine-3,3-indolin]-2′-one], the EC50 is 0.631 nM.

Regarding `O=C(OC1CCCC1)N1CCC2(CC1)C(=O)N(Cc1nc3cc(Cl)ccc3n1CCCC(F)(F)F)c1ccccc12` [Compound 47, Cyclopentyl 1-((5-chloro-1-(4,4,4-trifluorobutyl)-1H-benzo[d]imidazol-2-yl)methyl)-2-oxospiro[indoline-3,4′-piperidine]-1′-carboxylate], the EC50 was 1.58 nM.

For `CC(C)(C)OC(=O)N1CCC2(CC1)C(=O)N(Cc1nc3cc(Cl)ccc3n1CCCC(F)(F)F)c1ccccc12` [Compound 48], the EC50 is 2.51 nM.

Regarding `O=C1N(Cc2nc3cc(Cl)ccc3n2CCCC(F)(F)F)c2ccccc2C12CCNCC2` [Compound 49, 1-((5-chloro-1-(4,4,4-trifluorobutyl)-1H-benzo[d]imidazol-2-yl)methyl) spiro[indoline-3,4′-piperidin]-2-one], the EC50 was 5.01 nM.

On to `O=C(OCc1ccccc1)N1CCC2(CC1)C(=O)N(Cc1nc3cc(Cl)ccc3n1CCCC(F)(F)F)c1ccccc12` [Compound 50, benzyl 1-((5-chloro-1-(4,4,4-trifluorobutyl)-1H-benzo[d]-imidazol-2-yl)methyl)-2-oxospiro[indoline-3,4′-piperidine]-1′-carboxylate], for which the EC50 is 10 nM.

In the case of `O=C1N(Cc2nc3cc(Cl)ccc3n2CCCC(F)(F)F)c2ccccc2C12CCN(Cc1ccccc1)CC2` [Compound 51, 1′-benzyl-1-((5-chloro-1-(4,4,4-trifluorobutyl)-1H-benzo[d]-imidazol-2-yl)methyl)spiro[indoline-3,4′-piperidin]-2-one], the EC50 was 63.1 nM.

Turning to `O=C1N(Cc2nc3cc(Cl)ccc3n2CCCC(F)(F)F)c2ccccc2C12CCOCC2` [Compound 52, 1-((5-chloro-1-(4,4,4-trifluorobutyl)-1H-benzo[d]imidazol-2-yl)methyl)-2′,3′,5′,6′-tetrahydrospiro[indoline-3,4′-pyran]-2-one], the EC50 was 2.51 nM.

As for `CC(C)(C)OC(=O)N1CCC2(CC1)C(=O)N(Cc1nc3cc(Cl)ccc3n1CCCC#N)c1cnccc12` [Compound 53, tert-butyl 1′-((5-chloro-1-(3-cyanopropyl)-1H-benzo[d]-imidazol-2-yl)methyl)-2′-oxo-1′,2′-dihydrospiro[piperidine-4,3′-pyrrolo[2,3-c]pyridine]-1-carboxylate], the EC50 is below 0.158 nM.

Regarding `CS(=O)(=O)CCCn1c(CN2C(=O)C3(CCCC3)c3ccncc32)cc2cc(Cl)ccc21` [Compound 54, 1′-({5-chloro-1-[3-(methylsulfonyl)propyl]-1H-indol-2-yl}methyl)spiro [cyclopentane-1,3′-pyrrolo[2,3-c]pyridin]-2′(1′H)-one], the EC50 was 1.58 nM.

In the case of `CS(=O)(=O)CCCn1c(CN2C(=O)C3(CCOCC3)c3cnccc32)cc2cc(Cl)ccc21` [Compound 57], the EC50 is 83.2 nM.

For the molecule `CC(C)(C)OC(=O)N1CC2(C1)C(=O)N(Cc1cc3cc(Cl)ccc3n1CCCC#N)c1ccccc12` [Compound 58, tert-butyl 1′-{[5-chloro-1-(3-cyanopropyl)-1H-indol-2-yl]-methyl}-2′-oxo-1′,2′-dihydro-1H-spiro[azetidine-3,3′-indole]-1-carboxylate], the EC50 is below 0.2 nM.

As to `N#CCCCn1c(CN2C(=O)C3(CNC3)c3ccccc32)cc2cc(Cl)ccc21` [Compound 59, 4-{5-chloro-2-[(2′-oxospiro[azetidine-3,3′-indol]-1′(2′H )-yl)-methyl]-1H-indol-1-yl}butanenitrile], the EC50 is 5.01 nM.

As to `COC(=O)N1CC2(C1)C(=O)N(Cc1cc3cc(Cl)ccc3n1CCCC#N)c1ccccc12` [Compound 60, 1′-{[5-chloro-1-(3-cyanopropyl)-1H-indol-2-yl]methyl}-2′-oxo-1′,2′-dihydro-1H-spiro[azetidine-3,3′-indole]-1-carboxylate], the EC50 was 0.251 nM.

With `N#CCCCn1c(CN2C(=O)C3(CN(S(=O)(=O)C4CC4)C3)c3ccccc32)cc2cc(Cl)ccc21` [Compound 61, 4-(5-chloro-2-{[1-(cyclopropylsulfonyl)-2′-oxospiro-[azetidine-3,3′-indol]-1′(2′H)-yl]methyl}-1H-indol-1-yl)-butanenitrile], the EC50 is 0.398 nM.
